According to paper PMC10973027 (Molecular Imaging and Biology, 2023):
Entries after “also recorded” stand apart in the source; their conditions may differ.

Experiments:
[1] = set-up: method as in PMID 35959805; conditions: UP0030 study participants, 2 h post dose; cited from earlier work
[2] = Phase 1 PET-CT brain biodistribution study TM0017 (VT, K1, k2); format: in vivo, human
Experimental: A sample size of 2–10 participants was considered sufficient to meet the objectives, whilst limiting radiation exposure.
The preparation of radiopharmaceuticals and execution of PET-CT scans was performed by radiochemists, physicians, and technologists of Invicro (London, UK). Following local anesthesia, a catheter was inserted into the radial artery by an experienced physician; two venous catheters were also inserted. […] Upon administration, dynamic scanning started immediately and continued for 90 min.
Arterial input function data were acquired and processed for all PET scans.
Anatomical regions of interest (ROI) were defined via nonlinear deformation of a template MR image and associated neuroanatomical atlas, to match individual participants’ MR images. These ROI included, but were not limited to: parietal lobe, occipital lobe, frontal lobe, temporal lobe, striatum, cerebellum, thalamus, and the brain stem. Participants’ PET images were registered to their MR images, enabling the individualized ROI to be applied to the dynamic emission data to generate regional time activity curves (TACs). For additional information on the generation of regional TACs, see the electronic supplement.
Phase 1 PET Study in Healthy Male Participants (TM0017)
The TAC and total plasma data were fitted to a single compartment model to determine the influx and efflux constants K1 and k2. Because the plasma free fraction estimate is imprecise, we elected to fit the model using the total (free and bound) arterial concentration input function. The parameters of this model are related to the analogous parameters which would be estimated using an accurate estimate of the free arterial concentration using the equations below. We were able therefore to determine and present the K1 and estimated whole brain total distribution volume (VT), with relatively good repeatability between patients, and the equations below could also be used to relate the overall mean estimates back to the ideal total brain to free plasma minzasolmin (V’T) and unidirectional extraction Eu which can be calculated using the free fraction. The blood volume in the model was fixed at 5%. In this model, radiotracer which is free in tissue, non-specifically bound and specifically bound (i.e. to a target of interest) are lumped together in a single compartment, and so interchange between those states is assumed to be rapid.
The arterial input function used represents the total concentration of parent radiotracer in plasma, with no correction for plasma protein binding and the fitted and observed K1 from this model is lower than the rate of uptake from the free plasma concentration (K’1):
To calculate the Eu from the observed K1 from the model we then need to combine […]
The partition coefficient between total brain and total plasma concentration was determined from the fitted K1 and k2 parameters: […]
and the ratio of total concentration in brain to free concentration in plasma ( V’T) could be […]
Supplemental Fig. 1. Example of HPLC chromatograms (radioactive trace, top; UV trace, bottom) obtained during HPLC analysis of [11C-N-CH3]UCB2713 dose. The time delay

[3] = Plasma pharmacokinetics after single oral dose in TM0017; format: in vivo; conditions: male, human, TM0017, single oral 360 mg
[4] = Plasma free fraction; format: in vitro ADME; conditions: human plasma
[5] = set-up: method as in PMID 35959805; conditions: cited from earlier work
[6] = test system: Caco-2 cell system; set-up: method as in PMID 35959805; conditions: Caco-2, in vitro; cited from earlier work
[7] = test system: ASYN pathology; conditions: mouse model of PD, once-daily over 3 months; cited from earlier work
[8] = Safety and tolerability in TM0017 (TEAEs, ECG, vital signs)
Experimental: Other safety variables recorded include changes in 12-lead electrocardiogram (ECG) assessment and changes in vital signs (heart rate, systolic blood pressure, diastolic blood pressure, respiratory rate, and body temperature). Vital signs were measured in supine position following 5 min of rest and clinically significant abnormalities (according to the investigator) were recorded as an AE. All ECG recordings were performed following 5 min of rest in the supine position, in triplicate, with ≥ 1 min between each recording. If any clinically significant abnormalities occurred, an ECG data specialist was to review the recordings.

[9] = UP0030, 90–450 mg single ascending dose
[10] = TM0017, N = 4, single oral dose 360 mg

## CCCC[C@H](Cc1c[nH]c2ccccc12)NC(=O)c1cnc(N2CC[N+](C)([O-])CC2)s1 [N-oxide]
[1]
  concentration in CSF, times lower than the parent minzasolmin concentration: ~ 20 times

## CCCC[C@H](Cc1c[nH]c2ccccc12)NC(=O)c1cnc(N2CCN(C)CC2)s1 [minzasolmin, N-[(1R)-1-(1H-indol-3-ylmethyl)pentyl]-2-(4-methylpiperazin-1-yl)thiazole-5-carboxamide]
[2]; male, human, brain/plasma, intravenous, steady-state, from VT, read-out: Kp (total brain to total plasma concentration, partition coefficient)
  Kp: ~0.5
[2]; minzasolmin 360 mg/day dose, with plasma concentrations of UP0077
  maximum projected human total brain concentration: up to 1273 ng/mL
[3]; read-out: AUC GeoMean (time zero to infinity)
  AUC: 13200 ng·h/mL
[3]; read-out: Cmax GeoMean
  Cmax: 1580 ng/mL
[3]; read-out: apparent terminal elimination half-life (GeoMean) (converted)
  half-life: 11.4 h
[3]; read-out: tmax Median
  Tmax: 2 h
[4]
  fraction unbound: ~0.025
[5]; [9]
  AUC GeoMean (time zero to infinity): 3225 to 17040 ng·h/mL
  Cmax GeoMean: 374 to 1806 ng/mL
  tmax Median: 1.5 to 2 h
[5]; previous phase 1/1b studies
  apparent terminal elimination half-life, GeoMean range: 9.3 to 13.1 h
[6]
  permeability: high permeability
[7]
  tolerability: well-tolerated
[8]; [10]
  Any TEAEs: 3 (75) n (%)
  Deaths: 0 n (%)
  Discontinuations due to TEAEs: 0 n (%)
  Drug-related TEAEs: 0 n (%)
  Serious TEAEs: 0 n (%)
  Severe TEAEs: 0 n (%)
  TEAEs of special interest: 0 n (%)
[8]; TM0017, healthy male participants
  ECG parameters, vital signs, laboratory parameters: No clinically relevant findings in ECG parameters or vital sign measurements; also recorded: no clinically relevant findings in laboratory parameters, vital signs, or ECG recordings
[8]; TM0017 overall, three out of four participants
  participants reporting TEAEs: 75%
